These results are taken from ChEMBL document CHEMBL1201862, “PubChem BioAssay data set” (2004).

Holding throughout (experiment): inhibition of tumour cell growth, NCI panel, 48 h
The test system of experiment [1] is HCT-15.
Experiment [2] relates to SK-MEL-28.
The test system of experiment [3] is NCI-H460.
Experiment [4] deals with NCI-H23.
Experiment [5] relates to Malme-3M.
The subject of experiment [6] is HCT-116.
In experiment [7] the test system is KM12.
Experiment [8] concerns HCC 2998.
The subject of experiment [9] is MCF7.
The test system of experiment [10] is HOP-62.
In experiment [11] the test system is OVCAR-8.
The test system of experiment [12] is COLO 205.
In experiment [13] the test system is BT-549.
Experiment [14] relates to MOLT-4.
Experiment [15] deals with U-251.
For experiment [16], the system named is SN12C.
For experiment [17], the system named is SF-268.
The subject of experiment [18] is A549.
For experiment [19], the system named is SK-MEL-5.

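Test compounds were applied to cells in 96-well plates for 48 hours at 5 doses. Here, GI50 denotes the concentration required for 50% inhibition of growth.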 Calls of active or inactive are those of the source. Cut-off read from the data, not from the text of the source: active = GI50 up to about 1.1 µM and inactive = higher. A value given as a limit tells only on which side of the number the result lay.

`CNC1C(O)C(OC2C(N)CC(N)C(OC3OC(CN)=CCC3N)C2O)OCC1(C)O` (stereo not drawn): the GI50 in experiment [1] is over 100 µM; in experiment [2], > 100 µM (inactive); in experiment [3], > 100 µM (inactive); in [4], > 100 µM (inactive); in experiment [5], > 100 µM (inactive); in experiment [6] it was > 100 µM (inactive). Also, the GI50 in experiment [7], in [8], in experiment [9], in [10], in experiment [11] and in experiment [12] was > 100 µM (inactive) throughout. The GI50 in experiment [13], in [14], in experiment [15], in [16], in [17] and in experiment [18] was > 100 µM (inactive) each time. Further, in experiment [19], the GI50 is > 100 µM (inactive).
As to `Cn1ccnc1Sc1ccc(/C=N\NC(=O)c2cccc(F)c2)cc1[N+](=O)[O-]`, the GI50 in experiment [1] is 78.7 µM; in experiment [2], 79.4 µM (inactive); in experiment [3], > 100 µM (inactive); in experiment [4], 47.2 µM (inactive); in [5] it was > 100 µM (inactive); in experiment [6] it was 83.9 µM (inactive). The GI50 in [7] is > 100 µM (inactive); in [8] it was > 100 µM (inactive); in experiment [9], 27.8 µM (inactive); in experiment [10] it was 37.3 µM (inactive); in experiment [11], 21.7 µM (inactive); in experiment [12] it was > 100 µM (inactive). Moreover, the GI50 was 40.8 µM (inactive) in experiment [13]; > 100 µM (inactive) in experiment [14]; 21.1 µM (inactive) in experiment [15]; 50.1 µM (inactive) in experiment [16]; 24 µM (inactive) in experiment [17]; 69.3 µM (inactive) in [18]. For the same molecule, in [19], the GI50 is 56.4 µM (inactive).
As to `COC(=O)/C=C(\C(=O)OC)c1cc(C)c2cc(C(C)C)ccc(C)c1-2`, the GI50 in [1] is 11.7 µM; in experiment [2], > 100 µM (inactive); in experiment [3], 40.7 µM (inactive); in [4] it was 31.8 µM (inactive); in experiment [5] it was 38.5 µM (inactive); in experiment [6], 34 µM (inactive). The GI50 is 37.4 µM (inactive) in [7]; 28 µM (inactive) in experiment [8]; 24.9 µM (inactive) in [9]; 34.8 µM (inactive) in [10]; 55.1 µM (inactive) in experiment [11]; 30.3 µM (inactive) in experiment [12]. Also, the GI50 in [13] was 39.6 µM (inactive); in experiment [14], > 100 µM (inactive); in [15] it was 51.1 µM (inactive); in experiment [16], 53.3 µM (inactive); in [17] it was > 100 µM (inactive); in experiment [18], 28.2 µM (inactive). Moreover, the GI50 in [19] was 25.6 µM (inactive).
On to `CNC(=O)OCc1c2ccncc2c(C)c2c1[nH]c1ccccc12`, for which the GI50 in experiment [1] is 0.234 µM; in experiment [2] it was 0.818 µM (active); in experiment [3] it was 0.167 µM (active); in experiment [4] it was 0.195 µM (active); in experiment [5] it was 0.372 µM (active); in experiment [6], 0.184 µM (active). The GI50 was 0.449 µM (active) in experiment [7]; 0.206 µM (active) in [8]; 0.0455 µM (active) in [9]; 0.494 µM (active) in [10]; 0.125 µM (active) in experiment [11]; 0.443 µM (active) in [12]. The GI50 was 0.32 µM (active) in experiment [13]; 0.0659 µM (active) in experiment [14]; 0.223 µM (active) in [15]; 0.275 µM (active) in experiment [16]; 0.272 µM (active) in experiment [17]; 0.251 µM (active) in experiment [18]. The GI50 in experiment [19] is 0.242 µM (active).
In the case of `Cc1c2ccccc2cc2cccc[n+]12`, the GI50 in [1] was over 100 µM; in experiment [2], 25.7 µM (inactive); in experiment [3], 35.2 µM (inactive); in experiment [4] it was 18.2 µM (inactive); in experiment [5], 11.3 µM (inactive); in [6], 37.2 µM (inactive). Moreover, the GI50 in experiment [7] was 6.52 µM (inactive); in experiment [8], 15.2 µM (inactive); in experiment [9] it was 57.7 µM (inactive); in experiment [10], 21.6 µM (inactive); in experiment [11], 31.6 µM (inactive); in experiment [12] it was 19.8 µM (inactive). Moreover, the GI50 was 23.4 µM (inactive) in experiment [13]; 13 µM (inactive) in [14]; 29.6 µM (inactive) in experiment [16]; 10.4 µM (inactive) in experiment [17]; 6.82 µM (inactive) in experiment [18]; 27.4 µM (inactive) in experiment [19].
For `O=c1c(Cc2ccc(Cl)cc2)nnc2sc(-c3ccc([N+](=O)[O-])cc3)nn12`, the GI50 in [1] was 14.6 µM; in experiment [3] it was 16.1 µM (inactive); in [4] it was 20.7 µM (inactive); in experiment [5], 23.4 µM (inactive); in experiment [6], 20 µM (inactive); in experiment [7], 26.4 µM (inactive). Also, the GI50 in experiment [8] is 17.9 µM (inactive); in [9], 19.6 µM (inactive); in experiment [10], 49.1 µM (inactive); in experiment [11], 35 µM (inactive); in experiment [13], 19.8 µM (inactive); in [14], > 100 µM (inactive). For the same molecule, the GI50 in experiment [15] was 29 µM (inactive); in experiment [16], 33.5 µM (inactive); in experiment [17], 32.1 µM (inactive); in experiment [18], 24.3 µM (inactive).
`COc1cc(OCCN(C)C)c2[nH]c(C(=O)N3CC(CCl)c4c3cc(N)c3ccccc43)cc2c1` (stereo not drawn): the GI50 is under 0.01 µM in [1]; < 0.01 µM (active) in experiment [2]; < 0.01 µM (active) in experiment [3]; < 0.01 µM (active) in experiment [4]; < 0.01 µM (active) in [5]; < 0.01 µM (active) in experiment [6]. For the same molecule, the GI50 in experiment [7], in [8], in experiment [9], in [10], in [11] and in experiment [12] was < 0.01 µM (active) throughout. Further, the GI50 in experiment [13] was 0.0268 µM (active); in [15], < 0.01 µM (active); in experiment [16], < 0.01 µM (active); in experiment [17] it was < 0.01 µM (active); in experiment [18], < 0.01 µM (active); in experiment [19] it was < 0.01 µM (active).
For `c1ccc2c(c1)CC1=C(O2)c2ccccc2OC1`, the GI50 in experiment [1] is 25.8 µM; in experiment [4] it was 40.9 µM (inactive); in experiment [5], 52.6 µM (inactive); in experiment [6] it was 16.4 µM (inactive); in experiment [7], 29.1 µM (inactive); in experiment [8], 21.8 µM (inactive). In addition, the GI50 in experiment [9] was > 100 µM (inactive); in experiment [10] it was 74.5 µM (inactive); in [11] it was 35.7 µM (inactive); in experiment [12], 18.9 µM (inactive); in [13], 25.1 µM (inactive); in [14], 23.9 µM (inactive). Besides, the GI50 in experiment [15] was 22.3 µM (inactive); in experiment [16], 19.6 µM (inactive); in experiment [17], 29.4 µM (inactive); in [18], 47.3 µM (inactive); in experiment [19], 22.4 µM (inactive).
As to `COc1ccc2c(c1)OCC1Cc3ccccc3OC21` (stereo not drawn), the GI50 in [1] is over 100 µM; in experiment [4] it was > 100 µM (inactive); in [5] it was > 100 µM (inactive); in [6], > 100 µM (inactive); in experiment [7], 74 µM (inactive); in experiment [8] it was > 100 µM (inactive). The GI50 is > 100 µM (inactive) in [9]; > 100 µM (inactive) in [10]; > 100 µM (inactive) in experiment [11]; > 100 µM (inactive) in experiment [12]; > 100 µM (inactive) in experiment [13]; 54.1 µM (inactive) in experiment [14]. For the same molecule, the GI50 in experiment [15] was > 10 µM (inactive); in experiment [16], > 100 µM (inactive); in experiment [17] it was > 100 µM (inactive); in experiment [18], > 100 µM (inactive); in [19] it was > 10 µM (inactive).
For `CN1C(=O)C(=CNc2ccc(Cl)cc2Cl)C(=O)N(C)C1=O`, the GI50 was over 100 µM in experiment [1]; > 100 µM (inactive) in [3]; > 100 µM (inactive) in [4]; > 100 µM (inactive) in experiment [5]; > 100 µM (inactive) in [6]; > 100 µM (inactive) in [7]. For the same molecule, the GI50 was > 100 µM (inactive) in experiment [8]; > 100 µM (inactive) in [9]; > 100 µM (inactive) in [10]; 17.9 µM (inactive) in experiment [11]; > 100 µM (inactive) in experiment [12]; > 100 µM (inactive) in [13]. The GI50 was 66.5 µM (inactive) in experiment [14]; > 100 µM (inactive) in experiment [15]; > 100 µM (inactive) in experiment [16]; > 100 µM (inactive) in experiment [17]; > 100 µM (inactive) in experiment [18]; > 100 µM (inactive) in [19].
With `CC1(C)CC(=O)C2=C(C1)N(c1ccccc1)C1(O)C=CC(O)=C3C(=O)c4ccccc4C(=O)C321` (stereo not drawn), the GI50 was 30.8 µM in [1]; 17.8 µM (inactive) in experiment [2]; 26.3 µM (inactive) in experiment [3]; 24.6 µM (inactive) in experiment [4]; 26.7 µM (inactive) in experiment [5]; 61.4 µM (inactive) in [6]. The GI50 in [7] is 23 µM (inactive); in [8], 30.2 µM (inactive); in experiment [9] it was 27.7 µM (inactive); in experiment [10] it was 34.4 µM (inactive); in experiment [11], 37.8 µM (inactive); in [12] it was 33.6 µM (inactive). Besides, the GI50 is 26.9 µM (inactive) in [13]; 12.5 µM (inactive) in experiment [14]; 32.9 µM (inactive) in [15]; 28.7 µM (inactive) in experiment [16]; 20.2 µM (inactive) in experiment [17]; 67.5 µM (inactive) in experiment [18].
